According to ChEMBL document CHEMBL2086309, “Discovery of liver selective non-steroidal glucocorticoid receptor antagonist as novel antidiabetic agents” (Bioorg Med Chem Lett, 2012):

Tests used:
[1] = molecular target: T1, Glucocorticoid receptor (Homo sapiens, UniProt P04150); assay: Displacement of [3H]dexamethasone from human glucocorticoid receptor expressed in baculovirus infected Sf9 cells after overnight incubation by scintillation counting
T1 sequence (P04150 whole entry): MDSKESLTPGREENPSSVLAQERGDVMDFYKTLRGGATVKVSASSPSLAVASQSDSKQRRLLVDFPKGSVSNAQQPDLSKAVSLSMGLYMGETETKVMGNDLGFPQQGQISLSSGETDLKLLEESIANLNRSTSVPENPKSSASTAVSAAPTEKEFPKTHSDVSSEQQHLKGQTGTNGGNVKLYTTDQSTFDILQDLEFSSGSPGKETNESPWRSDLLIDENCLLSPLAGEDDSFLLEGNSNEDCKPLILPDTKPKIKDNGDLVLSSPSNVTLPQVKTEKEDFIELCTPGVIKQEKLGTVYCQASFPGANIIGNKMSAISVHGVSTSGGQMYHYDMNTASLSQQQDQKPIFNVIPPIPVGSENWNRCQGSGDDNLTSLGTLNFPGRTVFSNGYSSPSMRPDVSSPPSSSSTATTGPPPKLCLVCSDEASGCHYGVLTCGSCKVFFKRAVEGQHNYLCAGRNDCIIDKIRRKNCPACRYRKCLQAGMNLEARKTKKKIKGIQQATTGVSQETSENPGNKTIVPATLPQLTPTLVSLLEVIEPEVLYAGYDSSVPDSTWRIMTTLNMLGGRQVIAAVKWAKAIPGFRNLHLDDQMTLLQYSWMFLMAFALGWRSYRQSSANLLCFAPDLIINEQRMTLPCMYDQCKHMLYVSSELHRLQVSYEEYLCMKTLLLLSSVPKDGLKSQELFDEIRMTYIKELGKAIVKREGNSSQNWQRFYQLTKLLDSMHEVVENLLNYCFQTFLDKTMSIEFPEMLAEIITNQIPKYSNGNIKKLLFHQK

[2] = molecular target: T2, Glucocorticoid receptor (Rattus norvegicus, UniProt P06536); assay: Antagonist activity at glucocorticoid receptor in rat hepatocytes assessed as inhibition of dexamethasone-induced […] expression incubated for 30 mins prior to dexamethasone-induction measured after 4 hrs by reporter gene assay; type: functional, cell-based, Hepatocyte
T2 sequence (P06536 whole entry): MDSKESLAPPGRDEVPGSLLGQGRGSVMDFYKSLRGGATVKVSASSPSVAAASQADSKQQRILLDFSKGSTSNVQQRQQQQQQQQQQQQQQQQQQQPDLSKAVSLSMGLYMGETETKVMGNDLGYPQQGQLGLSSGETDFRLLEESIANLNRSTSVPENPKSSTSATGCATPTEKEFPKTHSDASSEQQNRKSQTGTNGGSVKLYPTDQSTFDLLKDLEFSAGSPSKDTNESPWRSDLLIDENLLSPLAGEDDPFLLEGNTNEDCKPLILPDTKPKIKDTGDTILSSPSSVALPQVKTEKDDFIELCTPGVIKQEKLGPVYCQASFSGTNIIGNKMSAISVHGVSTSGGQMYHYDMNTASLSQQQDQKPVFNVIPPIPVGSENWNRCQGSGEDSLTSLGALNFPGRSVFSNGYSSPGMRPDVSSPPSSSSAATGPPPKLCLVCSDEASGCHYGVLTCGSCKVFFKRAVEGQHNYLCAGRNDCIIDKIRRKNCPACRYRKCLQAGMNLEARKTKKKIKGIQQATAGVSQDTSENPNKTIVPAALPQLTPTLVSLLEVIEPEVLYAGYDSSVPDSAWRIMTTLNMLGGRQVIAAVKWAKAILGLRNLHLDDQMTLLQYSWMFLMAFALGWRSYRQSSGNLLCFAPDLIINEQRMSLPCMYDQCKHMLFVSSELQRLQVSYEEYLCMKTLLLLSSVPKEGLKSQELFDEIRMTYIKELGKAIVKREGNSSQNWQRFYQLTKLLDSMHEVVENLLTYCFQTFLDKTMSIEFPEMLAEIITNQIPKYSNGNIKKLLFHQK

[3] = molecular target: T1, Glucocorticoid receptor; assay: Antagonist activity at human glucocorticoid receptor expressed in GRAF cells assessed as inhibition of dexamethasone-induced alkaline phosphatase expression after 48 hrs by reporter gene assay; type: functional, cell-based

Row | Compound | IC50 [1] | IC50 [2] | IC50 [3]
1 | O=C(O)c1ccc(N(Cc2ccccc2)Cc2ccc(Oc3ccccc3)cc2)cc1 | > 9000 nM | – | –
2 | O=C(O)Cc1ccc(N(Cc2ccccc2)Cc2ccc(Oc3ccccc3)cc2)cc1 | 1910 nM | – | –
3 | O=C(O)Cc1cc(Br)c(N(Cc2ccccc2)Cc2ccc(Oc3ccccc3)cc2)c(Br)c1 | 1200 nM | – | –
4 | O=C(O)Cc1cc(Br)c(N(Cc2ccc(Oc3ccccc3)cc2)Cc2cccc(F)c2)c(Br)c1 | 820 nM | – | –
5 | Cc1ccccc1Oc1ccc(CN(Cc2cc(F)cc(F)c2)c2c(Br)cc(CC(=O)O)cc2Br)cc1 | 1280 nM | – | –
6 | c1ccc(CN(Cc2ccc(Oc3ccccc3)cc2)c2ccccc2)cc1 | > 10000 nM | – | –

The next molecules have a lower IC50 [1] than those just listed; values first:

Row | IC50 [1] | IC50 [2] | IC50 [3] | Compound
7 | 96 nM | 2600 nM | 391 nM | O=C(O)Cc1cc(Br)c(N(Cc2ccc(Oc3ccc(Cl)cc3Cl)cc2)Cc2cc(F)cc(F)c2)c(Br)c1
8 | 4.6 nM | 1880 nM | 432 nM | Cc1c(NS(C)(=O)=O)cccc1N(Cc1ccc(Oc2ccc(F)c(OCC(=O)O)c2)cc1)Cc1cc(F)cc(F)c1
9 | 298 nM | 3300 nM | 598 nM | O=C(O)Cc1cc(Br)c(N(Cc2ccc(Oc3ccccc3C(F)(F)F)cc2)Cc2cc(F)cc(F)c2)c(Br)c1
10 | 111 nM | 2900 nM | 421 nM | O=C(O)Cc1cc(Br)c(N(Cc2ccc(Oc3ccc(C(F)(F)F)cc3C(F)(F)F)cc2)Cc2cc(F)cc(F)c2)c(Br)c1
